The source made the active and inactive calls. No rule for the calls is given here.
Tested on: CCRIS mutagenicity, Ames/micronucleus/aberration tests
Test: CCRIS mutagenicity studies

Q: Which mutagenic call (End Point: In vivo micronucleus, Test System: Peripheral blood normochromatic erythrocytes, Species: Mouse, Strain/Sex: B6C3F1/Female) does the source give for `C=CC(=O)OCC(CO)(COC(=O)C=C)COC(=O)C=C` here?
A: inactive; negative

Q: What about the mutagenic call (End Point: In vivo micronucleus, Test System: Peripheral blood normochromatic erythrocytes, Species: Mouse, Strain/Sex: B6C3F1/Male, Route: Dermal) of the same compound?
A: inactive; negative

Q: What about the mutagenic call (End Point: In vivo micronucleus, Test System: Peripheral blood normochromatic erythrocytes, Species: Mouse, Strain/Sex: FVB.N/TgN (v-Ha-ras) Tg.AC hemizygous/Female, Route: Dermal) of the same compound?
A: active; positive

Q: What about the mutagenic call (End Point: In vivo micronucleus, Test System: Peripheral blood normochromatic erythrocytes, Species: Mouse, Strain/Sex: FVB.N/TgN (v-Ha-ras) Tg.AC hemizygous/Male, Route: Dermal) of the same compound?
A: inactive; negative (described as equivocal by ntp)

Q: What about the mutagenic call (Test System: AMES SALMONELLA TYPHIMURIUM, Strain/Indicator: TA98, Metabolic Activation: HAMSTER, LIVER, S-9, AROCLOR 1254 (10%), Method: PREINCUBATION) of the same compound?
A: inactive; negative

Q: And the mutagenic call (Test System: AMES SALMONELLA TYPHIMURIUM, Strain/Indicator: TA98, Metabolic Activation: NONE, Method: PREINCUBATION)?
A: inactive; negative

Q: And the mutagenic call (Test System: AMES SALMONELLA TYPHIMURIUM, Strain/Indicator: TA98, Metabolic Activation: RAT, LIVER, S-9, AROCLOR 1254 (10%), Method: PREINCUBATION)?
A: inactive; negative

Q: And the mutagenic call (Test System: AMES SALMONELLA TYPHIMURIUM, Strain/Indicator: TA100, Metabolic Activation: HAMSTER, LIVER, S-9, AROCLOR 1254 (10%), Method: PREINCUBATION)?
A: inactive; negative

Q: And the mutagenic call (Test System: AMES SALMONELLA TYPHIMURIUM, Strain/Indicator: TA100, Metabolic Activation: NONE, Method: PREINCUBATION)?
A: inactive; negative

Q: What about the mutagenic call (Test System: AMES SALMONELLA TYPHIMURIUM, Strain/Indicator: TA100, Metabolic Activation: RAT, LIVER, S-9, AROCLOR 1254 (10%), Method: PREINCUBATION) of the same compound?
A: inactive; negative

Q: What about the mutagenic call (Test System: AMES SALMONELLA TYPHIMURIUM, Strain/Indicator: TA1535, Metabolic Activation: HAMSTER, LIVER, S-9, AROCLOR 1254 (10%), Method: PREINCUBATION) of the same compound?
A: inactive; negative

Q: And the mutagenic call (Test System: AMES SALMONELLA TYPHIMURIUM, Strain/Indicator: TA1535, Metabolic Activation: NONE, Method: PREINCUBATION)?
A: inactive; negative

Q: And the mutagenic call (Test System: AMES SALMONELLA TYPHIMURIUM, Strain/Indicator: TA1535, Metabolic Activation: RAT, LIVER, S-9, AROCLOR 1254 (10%), Method: PREINCUBATION)?
A: inactive; negative

Q: What about the mutagenic call (Test System: AMES SALMONELLA TYPHIMURIUM, Strain/Indicator: TA1537, Metabolic Activation: HAMSTER, LIVER, S-9, AROCLOR 1254 (10%), Method: PREINCUBATION) of the same compound?
A: inactive; negative

Q: What about the mutagenic call (Test System: AMES SALMONELLA TYPHIMURIUM, Strain/Indicator: TA1537, Metabolic Activation: NONE, Method: PREINCUBATION) of the same compound?
A: inactive; negative

Q: And the mutagenic call (Test System: AMES SALMONELLA TYPHIMURIUM, Strain/Indicator: TA1537, Metabolic Activation: RAT, LIVER, S-9, AROCLOR 1254 (10%), Method: PREINCUBATION)?
A: inactive; negative

Q: What about the mutagenic call (Test System: MOUSE LYMPHOMA, Strain/Indicator: L5178Y (TK+/TK-), Metabolic Activation: NONE, Method: SUSPENSION/PLATE) of the same compound?
A: active; positive

Source: PubChem BioAssay AID1259407 (Chemical Carcinogenesis Research Information System (CCRIS), 2018)
